Measured values as given in the supplement of paper PMC10307832.

Assays:
Assay in all cases: relative viability (nuclei count vs DMSO), 5 days (fraction); higher = more cells survive
[1] = compound: CC1=C(C(=O)N2C=CSC2=N1)CCN3CCC(=C(C4=CC=CC=C4)C5=CC=C(C=C5)F)CC3 + O=C(CCCCCCC(=O)Nc1ccccc1)NO [Vorinostat] (partner 1 µM)
Summary of the method: (§1)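 The day after seeding in 1536-well plates, lung cancer cell lines were treated by pin tool with a single drug, or with a fixed anchor-drug dose together with five library-drug doses (not always all listed) in √10 steps. After 5 days, a combined fix-and-stain solution (final 0.05% Triton X-100, 1% formaldehyde, 1 ug/ml Hoechst) was added. Nuclei counted on 4× images gave relative viability as treated counts over vehicle counts, reported as the median of duplicate plates.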

[2] = compound: CC1=C(C(=O)N2C=CSC2=N1)CCN3CCC(=C(C4=CC=CC=C4)C5=CC=C(C=C5)F)CC3 + Nc1nc2[nH]cc(CCc3ccc(C(=O)N[C@@H](CCC(=O)O)C(=O)O)cc3)c2c(=O)[nH]1 [Pemetrexed] (partner 0.2 µM)
Summary of the method: as §1

[3] = compound: CC1=C(C(=O)N2C=CSC2=N1)CCN3CCC(=C(C4=CC=CC=C4)C5=CC=C(C=C5)F)CC3 + Cc1nc(Nc2ncc(C(=O)Nc3c(C)cccc3Cl)s2)cc(N2CCN(CCO)CC2)n1 [Dasatinib] (partner 0.075 µM)
Summary of the method: as §1

[4] = compound: CC1=C(C(=O)N2C=CSC2=N1)CCN3CCC(=C(C4=CC=CC=C4)C5=CC=C(C=C5)F)CC3 + CC(=O)c1c(C)c2cnc(Nc3ccc(N4CCNCC4)cn3)nc2n(C2CCCC2)c1=O [Palbociclib] (partner 0.5 µM)
Summary of the method: as §1

Cell Line | relative viability ([1]; first compound 0.08 µM) | relative viability ([1]; first compound 0.253 µM) | relative viability ([1]; first compound 0.8 µM) | relative viability ([1]; first compound 2.53 µM) | relative viability ([1]; first compound 8 µM) | relative viability ([2]; first compound 0.08 µM) | relative viability ([2]; first compound 0.253 µM) | relative viability ([2]; first compound 0.8 µM) | relative viability ([2]; first compound 2.53 µM) | relative viability ([2]; first compound 8 µM) | relative viability ([3]; first compound 0.08 µM) | relative viability ([3]; first compound 0.253 µM) | relative viability ([3]; first compound 0.8 µM) | relative viability ([3]; first compound 2.53 µM) | relative viability ([3]; first compound 8 µM) | relative viability ([4]; first compound 0.08 µM) | relative viability ([4]; first compound 0.253 µM) | relative viability ([4]; first compound 0.8 µM) | relative viability ([4]; first compound 2.53 µM) | relative viability ([4]; first compound 8 µM)
NCI-H1793 | 0.599 | 0.988 | 0.577 | 0.891 | 0.535 | 0.72 | 0.715 | 0.796 | 1.12 | 0.794 | 0.363 | 0.328 | 0.415 | 0.467 | 0.233 | 0.212 | 0.311 | 0.272 | 0.345 | 0.318
NCI-H1915 | 0.554 | 0.584 | 0.538 | 0.524 | 0.383 | 0.576 | 0.44 | 0.493 | 0.517 | 0.44 | 0.371 | 0.315 | 0.305 | 0.374 | 0.252 | 0.559 | 0.542 | 0.496 | 0.498 | 0.397
NCI-H1944 | 0.442 | 0.502 | 0.499 | 0.54 | 0.377 | 0.626 | 0.663 | 0.596 | 0.591 | 0.499 | 0.243 | 0.237 | 0.193 | 0.215 | 0.242 | 0.305 | 0.31 | 0.341 | 0.29 | 0.259
NCI-H1975 | 0.761 | 0.748 | 0.748 | 0.774 | 0.492 | 0.292 | 0.265 | 0.312 | 0.291 | 0.236 | 0.355 | 0.395 | 0.345 | 0.386 | 0.304 | 0.601 | 0.493 | 0.598 | 0.795 | 0.348
NCI-H1993 | 0.87 | 0.715 | 0.885 | 0.92 | 0.756 | 0.617 | 0.622 | 0.645 | 0.671 | 0.468 | 0.513 | 0.533 | 0.559 | 0.596 | 0.507 | 0.583 | 0.619 | 0.592 | 0.705 | 0.614
NCI-H2009 | 0.71 | 0.715 | 0.728 | 0.778 | 0.556 | 1.04 | 1.1 | 1.04 | 1.12 | 0.938 | 0.369 | 0.304 | 0.28 | 0.332 | 0.285 | 0.231 | 0.175 | 0.186 | 0.204 | 0.21
NCI-H2023 | 0.657 | 0.56 | 0.648 | 0.695 | 0.399 | 0.288 | 0.199 | 0.239 | 0.333 | 0.246 | 0.549 | 0.58 | 0.602 | 0.513 | 0.363 | 0.386 | 0.316 | 0.427 | 0.389 | 0.299
NCI-H2085 | 0.85 | 0.827 | 0.758 | 0.807 | 0.707 | 0.966 | 0.964 | 0.759 | 0.955 | 0.883 | 0.279 | 0.224 | 0.202 | 0.242 | 0.258 | 0.498 | 0.506 | 0.474 | 0.533 | 0.469
